In patent publication US20160050895A1, “TRANSGENIC NON-HUMAN ORGANISMS WITH NON-FUNCTIONAL TSPO GENES” (AUSTRALIAN NUCLEAR SCIENCE AND TECHNOLOGY ORGANIZATION, priority 2013, published 2016):
“Also recorded” adds a separate entry of the source.

Columns and labels:
TSPO [1] = experiment: Receptor film autoradiography of tissue sections with [3H]PK11195 and [125I]CLINDE; assay type: binding, mouse; settings: spleen, kidney, testis sections from TSPO-/- mice; 3 nM [125I]CLINDE, 1 nM [3H]PK11195
Procedure: Snap-frozen tissues were sectioned at 20 μm in a cryostat, thaw mounted on poly-L-lysine-coated slides and stored at −80° C. until day of experiment. On the day of the experiment, slides were thawed at room temperature and air dried with a cool stream of air. Total and non-specific binding were determined by incubation with 1 nM of 3H-PK11195 with or without the presence of 3 μM of PK11195 in 130 mM TRIS-HCl buffer (pH 7.4) at room temperature for 20 minutes. Following incubation, the slides were briefly dipped twice in 130 mM TRIS-HCl buffer, washed twice for 5 minutes in fresh 130 mM TRIS-HCl at room temperature. […] Images were analysed with Quantity One imaging analysis program (Bio-Rad, Hercules, Calif. USA); to assess the level of 3H-PK11195 binding, regions of interest were drawn over the tissue and an average optical density/mm^2 was calculated. […]
The organs including brain, retina, heart, kidney and testes used for film autoradiography were dissected from wild-type (TSPO^+/+), heterozygous (TSPO^+/−), and homozygous (TSPO^−/−) mice and snap-frozen in liquid nitrogen. […] Tritium standards (Amersham Biosciences, Uppsala, Sweden) co-exposed with the organ sections on each Hyperfilm-^3H (Kodak Film) at 4° C. for 60 days, were used to quantify the autoradiographically measured binding. […]

TSPO [2] = experiment: Film autoradiography of brain sections after facial nerve axotomy; assay type: binding, mouse; settings: TSPO-/- mice
Source text: (§1) Procedures for facial nerve axotomy were approved by the animal ethics committee at the University of Sydney. Animals were anaesthetised using Isoflurane anaesthesia. Animals were monitored for a combination of respiration, heart rate, oxygen saturation and temperature during procedures using a variety of monitoring equipment to ensure anaesthetic depth. The surgical process commenced when foot-pad or plantar reflex could no longer be elicited. The fur on the ipsilateral (right) side of the neck was shaved from the ear downwards, and the skin cleaned using 70% ethanol. A small incision (0.5-0.7 cm in length) overlying the musculature covering the stylomastoid foramen was made. The facial nerve was identified, isolated and then transected completely. The skin of incision was closed with heal-glue. […] The animals were euthanized with CO2 3 days after the axotomy and brain tissue, including facial nerve nuclei in the brain stem and cerebellum, was immediately dissected, snap-frozen in liquid nitrogen, and then stored in −80° C. freezer until the cryostat section.
(§2) A small incision (0.5-0.7 cm) in the skin 0.5 cm dorsal and lateral to the ear was made and the facial nerve transected under an operating microscope. The incision was closed with 3M™ Vetbond™ Tissue Adhesive (St. Paul, Minn., USA). […] Mice were monitored carefully and euthanized with CO2 three days after the operation. Brains were dissected, placed in OCT, transferred to liquid nitrogen, and stored at −80° C. until cryo-sectioning.
(§3) Tissue sections from TSPO^+/+, TSPO^+/− and TSPO^−/− mice were incubated at room temperature for 20 min in 170 mM Tris-HCl pH 7.4 containing 1 nM [^3H]PK11195 (specific activity 84 Ci/mmol; Perkin Elmer, Waltham, Mass., USA), washed twice for 5 min in 170 mM Tris-HCl, rinsed with 3 dips in ice-cold MilliQ H2O, and dried. […] Displacement binding was carried out in the presence of PK11195 (10 μM), CLINDE (10 μM) and PBR-11 (10 μM).

TSPO [3] = target: T1, TSPO (Mus musculus, UniProt P50637); experiment: as above; assay type: binding; design: from tissue; host or cells: organs of living mice (adrenal gland, kidney, heart, liver, lung, brain); settings: TSPO+/+ animals; after facial nerve axotomy
Source text: as §1
as §2, with “Brains were dissected, placed in OCT, transferred to liquid nitrogen, and stored at −80° C. until cryo-sectioning.” left out

TSPO [4] = target: T1, TSPO; experiment: Receptor film autoradiography of tissue sections with [3H]PK11195 and [125I]CLINDE; assay type: binding; design: Snap-frozen tissues were sectioned at 20 μm in a cryostat; from tissue; host or cells: mouse organ sections (brain, retina/eye, heart, adrenal, kidney, testis, spleen), C57BL/6 background
Procedure: Snap-frozen tissues were sectioned at 20 μm in a cryostat, thaw mounted on poly-L-lysine-coated slides and stored at −80° C. until day of experiment. On the day of the experiment, slides were thawed at room temperature and air dried with a cool stream of air. Total and non-specific binding were determined by incubation with 1 nM of 3H-PK11195 with or without the presence of 3 μM of PK11195 in 130 mM TRIS-HCl buffer (pH 7.4) at room temperature for 20 minutes. Following incubation, the slides were briefly dipped twice in 130 mM TRIS-HCl buffer, washed twice for 5 minutes in fresh 130 mM TRIS-HCl at room temperature. The slides were finally briefly rinsed 3 times in chilled distilled H2O, dried under a cool stream of air and allowed to air dried overnight. Sections were exposed to Kodak BioMax MR film along with tritium microscales with known activity concentrations in X-ray film cassettes. Films were developed after 33 days and digitized using a GS800 Calibrated Densitometer (Bio-Rad, Hercules, Calif., USA). Images were analysed with Quantity One imaging analysis program (Bio-Rad, Hercules, Calif. USA); to assess the level of 3H-PK11195 binding, regions of interest were drawn over the tissue and an average optical density/mm^2 was calculated. Data obtained from an individual film, subject to interfilm variations, were normalized against other films through the optical density oftritium microscales.
The organs including brain, retina, heart, kidney and testes used for film autoradiography were dissected from wild-type (TSPO^+/+), heterozygous (TSPO^+/−), and homozygous (TSPO^−/−) mice and snap-frozen in liquid nitrogen. Cryostat organ sections at 18 μm were placed onto superfrost slides (Menzel-Glaser, Braunschweig, Germany) and stored in the dark at −20° C. for no longer than 1 week before the experiment. […] Tritium standards (Amersham Biosciences, Uppsala, Sweden) co-exposed with the organ sections on each Hyperfilm-^3H (Kodak Film) at 4° C. for 60 days, were used to quantify the autoradiographically measured binding. The hyperfilm was developed using Kodak GBX developer and fixer (Sigma Aldrich, St. Louis, Mo., U.S.A.). The hyperfilm was air-dried overnight before being scanned using the ArtixScan 1800f flatbed scanner (Microtek, Hsinchu, Taiwan), with greyscale using a magnification of 400% and an optical resolution of 2400 pixels per inch. No pre-scanning manipulation or filter was applied.
as §3

CC[C@@H](C)N(C)C(=O)c1cc2ccccc2c(-c2ccccc2Cl)n1 [[^3H]PK11195]
binding in TSPO-/- tissue (TSPO [1]): at background level and not displaceable | TSPO ligand binding in the injured facial nucleus (TSPO [2]; after facial nerve axotomy, activated microglia present): no binding; also recorded: not associated with an increase in the binding | selectivity in pathologically changed tissue (TSPO [2]; injured facial nucleus): high selectivity; also recorded: holds true | TSPO ligand binding in the injured facial nucleus (TSPO [3]): localised induction of TSPO ligand binding | selectivity for TSPO (TSPO [4]; in vitro, validated against TSPO-/- null background): high selectivity | Specific binding in tissue sections (TSPO [4]; spleen, kidney, testis sections from TSPO+/+ and TSPO+/- mice, 3 nM [125I]CLINDE, 1 nM [3H]PK11195): clearly visible
